Reference: patent US10294229B2, “Heteroaryl substituted aminopyridine compounds” (BRISTOL-MYERS SQUIBB COMPANY, priority 2015, dated 2019)

Each compound was assayed against IRAK4 (Homo sapiens (Human), UniProt Q9NWZ3) (assay: IRAK4 Inhibition Assay). Settings: ATP 500 μM; IRAK4 0.6 nM.
Type: biochemical
Method in brief: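 Enzyme 0.6 nM, ATP 500 μM, FL-peptide 1.5 μM, DMSO 1.6%; HEPES pH 7.2/MgCl2/Brij 35/DTT buffer. RT, 60 min, EDTA stop. Mobility-shift product/substrate ratio; % inhib vs no-enzyme and vehicle controls.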

Sequence of IRAK4 (Q9NWZ3 whole entry, species assumed): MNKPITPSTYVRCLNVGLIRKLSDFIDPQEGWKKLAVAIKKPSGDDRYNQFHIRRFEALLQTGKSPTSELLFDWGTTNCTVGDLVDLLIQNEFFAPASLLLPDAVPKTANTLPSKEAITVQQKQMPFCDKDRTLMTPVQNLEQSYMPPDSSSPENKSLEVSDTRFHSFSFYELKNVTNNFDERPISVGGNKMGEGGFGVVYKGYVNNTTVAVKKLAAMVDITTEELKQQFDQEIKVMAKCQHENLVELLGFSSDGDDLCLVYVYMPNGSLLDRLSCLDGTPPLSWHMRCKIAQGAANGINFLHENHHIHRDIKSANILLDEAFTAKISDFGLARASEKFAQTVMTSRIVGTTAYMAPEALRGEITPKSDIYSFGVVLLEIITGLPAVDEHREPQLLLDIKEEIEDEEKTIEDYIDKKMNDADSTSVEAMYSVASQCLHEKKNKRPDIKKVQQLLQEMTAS

IC50	SMILES
0.19 µM	CC(C)Nc1cc(-n2ncc3cc(C#N)cnc32)ncc1-c1cnn(CC2COC2)c1 [Example 254, 1-(4-(isopropylamino)-5-(1-(oxetan-3-ylmethyl)-1H-pyrazol-4-yl)pyridin-2-yl)-1H-pyrazolo[3,4-b]pyridine-5-carbonitrile]
0.039 µM	CC(C)Nc1cc(-n2ncc3cc(C#N)cnc32)ncc1-c1cnn(CC(F)(F)F)c1 [Example 255, 1-(4-(isopropylamino)-5-(1-(2,2,2-trifluoroethyl)-1H-pyrazol-4-yl)pyridin-2-yl)-1H-pyrazolo[3,4-b]pyridine-5-carbonitrile]
0.02 µM	CC(C)Nc1cc(-n2ncc3cc(C#N)cnc32)ncc1-c1cnn(C2CCOCC2)c1 [Example 257, 1-(4-(isopropylamino)-5-(1-(tetrahydro-2H-pyran-4-yl)-1H-pyrazol-4-yl)pyridin-2-yl)-1H-pyrazolo[3,4-b]pyridine-5-carbonitrile]
0.153 µM	CC(C)Nc1cc(-n2ncc3cc(C#N)cnc32)ncc1-c1cnn(C2CC2)c1 [Example 259, 1-(5-(1-cyclopropyl-1H-pyrazol-4-yl)-4-(isopropylamino)pyridin-2-yl)-1H-pyrazolo[3,4-b]pyridine-5-carbonitrile]
0.146 µM	CC(C)Nc1cc(-n2ncc3cc(C#N)cnc32)ncc1-c1cnn(C(F)F)c1 [Example 260, 1-(5-(1-(difluoromethyl)-1H-pyrazol-4-yl)-4-(isopropylamino)pyridin-2-yl)-1H-pyrazolo[3,4-b]pyridine-5-carbonitrile]
0.029 µM	CCCn1cc(-c2cnc(-n3ncc4cc(C#N)cnc43)cc2NC(C)C)cn1 [Example 261, 1-(4-(isopropylamino)-5-(1-propyl-1H-pyrazol-4-yl)pyridin-2-yl)-1H-pyrazolo[3,4-b]pyridine-5-carbonitrile]
0.288 µM	CC(C)Nc1cc(-n2ncc3cncnc32)ncc1-c1cnn(CC(F)(F)F)c1 [Example 262, N-isopropyl-2-(1H-pyrazolo[3,4-d]pyrimidin-1-yl)-5-(1-(2,2,2-trifluoroethyl)-1H-pyrazol-4-yl)pyridin-4-amine]
0.083 µM	COCc1cn(-c2cnc(-n3ncc4cc(C#N)cnc43)cc2NC(C)C)nn1 [Example 267, 1-(4-(isopropylamino)-5-(4-(methoxymethyl)-1H-1,2,3-triazol-1-yl)pyridin-2-yl)-1H-pyrazolo [3,4-b]pyridine-5-carbonitrile]
0.038 µM	CC(O)Cc1cn(-c2cnc(-n3ncc4cc(C#N)cnc43)cc2NC(C)C)nn1 (stereo not shown) [Example 268, 1-(5-(4-(2-hydroxypropyl)-1H-1,2,3-triazol-1-yl)-4-(isopropylamino)pyridin-2-yl)-1H-pyrazolo[3,4-b]pyridine-5-carbonitrile]
0.108 µM	CCCc1cn(-c2cnc(-n3ncc4cncnc43)cc2Nc2cnn(CC(F)F)c2)nn1 [Example 271, N-(1-(2,2-difluoroethyl)-1H-pyrazol-4-yl)-5-(4-propyl-1H-1,2,3-triazol-1-yl)-2-(1H-pyrazolo[3,4-d]pyrimidin-1-yl)pyridin-4-amine]
0.529 µM	CCCc1cn(-c2cnc(-n3ncc4cc(C#N)cnc43)cc2N[C@H](C)CO)nn1 [Example 272, (R)-1-(4-((1-hydroxypropan-2-yl)amino)-5-(4-propyl-1H-1,2,3-triazol-1-yl)pyridin-2-yl)-1H-pyrazolo[3,4-b]pyridine-5-carbonitrile]
0.078 µM	CCCc1cn(-c2cnc(-n3ncc4cc(C#N)cnc43)cc2N[C@@H](C)CO)nn1 [Example 273, (S)-1-(4-((1-hydroxypropan-2-yl)amino)-5-(4-propyl-1H-1,2,3-triazol-1-yl)pyridin-2-yl)-1H-pyrazolo[3,4-b]pyridine-5-carbonitrile]
0.017 µM	CCCc1cn(-c2cnc(-n3ncc4cc(C#N)cnc43)cc2NC2COC2)nn1 [Example 276, 1-(4-(oxetan-3-ylamino)-5-(4-propyl-1H-1,2,3-triazol-1-yl)pyridin-2-yl)-1H-pyrazolo[3,4-b]pyridine-5-carbonitrile]
